Measured values from PubChem BioAssay (NCI).
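GI50 = concentration required for 50% inhibition of growth. TGI denotes the concentration required for complete inhibition of growth.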

How the values were obtained:
Test in all cases: NCI-60 cell line screen, 384-well format
[1] = tested on: TK-10 renal
[2] = tested on: NCI/ADR-RES ovarian
[3] = tested on: MDA-MB-231 breast
[4] = tested on: NCI-H23 lung
[5] = tested on: MCF7 breast
[6] = tested on: A498 renal
[7] = tested on: K-562 leukemia
[8] = tested on: EKVX NSCLC
[9] = tested on: SK-MEL-5 melanoma
[10] = tested on: HT29 colon
[11] = tested on: MDA-MB-435 melanoma
[12] = tested on: IGROV1 ovarian
[13] = tested on: SF-539 CNS
[14] = tested on: DU-145 prostate
[15] = tested on: M14 melanoma
[16] = tested on: ACHN renal
[17] = tested on: MALME-3M melanoma
[18] = tested on: SNB-75 CNS
[19] = tested on: OVCAR-3 ovarian
[20] = tested on: SW-620 colon
[21] = tested on: UO-31 renal
[22] = tested on: SR leukemia
[23] = tested on: BT-549 breast
[24] = tested on: NCI-H460 NSCLC
[25] = tested on: A549 NSCLC
[26] = tested on: SNB-19 CNS
[27] = tested on: KM12 colon
[28] = tested on: HCC-2998 colon
[29] = tested on: PC-3 prostate
[30] = tested on: SK-MEL-28 melanoma
[31] = tested on: LOX IMVI melanoma
[32] = tested on: HCT-15 colon
[33] = tested on: UACC-62 melanoma
[34] = tested on: CCRF-CEM leukemia
[35] = tested on: NCI-H226 lung
[36] = tested on: MOLT-4 leukemia
[37] = tested on: NCI-H322M lung
[38] = tested on: NCI-H522 lung
[39] = tested on: CAKI-1 renal
[40] = tested on: SF-268 CNS
[41] = tested on: 786-0 renal
[42] = tested on: U251 glioblastoma
[43] = tested on: OVCAR-5 ovarian
[44] = tested on: MDA-MB-468 breast
[45] = tested on: HOP-92 NSCLC
[46] = tested on: OVCAR-8 ovarian
[47] = tested on: HS 578T breast
[48] = tested on: SF-295 CNS
[49] = tested on: COLO 205 colon
[50] = tested on: HOP-62 NSCLC
[51] = tested on: SN12C renal
[52] = tested on: OVCAR-4 ovarian
[53] = tested on: HL-60(TB) leukemia
[54] = tested on: RPMI-8226 leukemia
[55] = tested on: SK-OV-3 ovarian
[56] = tested on: T-47D breast
[57] = tested on: RXF 393 renal
[58] = tested on: UACC-257 melanoma

`C[C@@H]1COC(Nc2ccc3ncnc(Nc4ccc(OCc5nccs5)c(Cl)c4)c3c2)=N1` gave a GI50 [1] of 1.48 µM, a TGI [1] of 17.9 µM and a GI50 [2] of 2.39 µM. The TGI [2] was 6.92 µM, the GI50 [3] was 9.67 µM and the TGI [3] was 22.8 µM. It also gave a GI50 [4] of 7.4 µM, a TGI [4] of 26.3 µM and a GI50 [5] of 5.96 µM. It also gave a TGI [5] of 21.2 µM, a GI50 [6] of 4.31 µM and a TGI [6] of 19 µM. It also gave a GI50 [7] of 4.48 µM, a TGI [7] of 16.6 µM and a GI50 [8] of 0.332 µM. The TGI [8] was 11.4 µM, the GI50 [9] was 1.77 µM and the TGI [9] was 4.21 µM. It also gave a GI50 [10] of 6.33 µM, a TGI [10] of 19.9 µM and a GI50 [11] of 11.8 µM. It also gave a TGI [11] of 24.7 µM, a GI50 [12] of 0.335 µM and a TGI [12] of 2.13 µM. It also gave a GI50 [13] of 12.3 µM, a TGI [13] of 24.8 µM and a GI50 [14] of 3.22 µM. It also gave a TGI [14] of 17.6 µM, a GI50 [15] of 6.3 µM and a TGI [15] of 18.3 µM. It also gave a GI50 [16] of 0.563 µM, a TGI [16] of 17.4 µM and a GI50 [17] of 3.43 µM. It also gave a TGI [17] of 11.4 µM, a GI50 [18] of 13.5 µM and a TGI [18] of 28.2 µM. For the same compound, the GI50 [19] was 1.83 µM, the TGI [19] was 7.84 µM and the GI50 [20] was 19 µM. The TGI [20] was 35.7 µM, the GI50 [21] was 10.9 µM and the TGI [21] was 23.6 µM. It also gave a GI50 [22] of 7.27 µM, a TGI [22] of 20.5 µM and a GI50 [23] of 3.81 µM. For the same compound, the TGI [23] was 12.2 µM, the GI50 [24] was 3.71 µM and the TGI [24] was 12.8 µM. For the same compound, the GI50 [25] was 4.91 µM, the TGI [25] was 19.8 µM and the GI50 [26] was 11.1 µM. It also gave a TGI [26] of 24.5 µM, a GI50 [27] of 5.6 µM and a TGI [27] of 18.8 µM. It also gave a GI50 [28] of 12.3 µM, a TGI [28] of 26.7 µM and a GI50 [29] of 5.36 µM. The TGI [29] was 17 µM, the GI50 [30] was 4.88 µM and the TGI [30] was 17.2 µM. For the same compound, the GI50 [31] was 3.25 µM, the TGI [31] was 11.6 µM and the GI50 [32] was 5.44 µM. For the same compound, the TGI [32] was 21.5 µM, the GI50 [33] was 4.25 µM and the TGI [33] was 16.2 µM. For the same compound, the GI50 [34] was 3.44 µM, the TGI [34] was 8.53 µM and the GI50 [35] was 1.66 µM. It also gave a TGI [35] of 5.47 µM, a GI50 [36] of 1.85 µM and a TGI [36] of 3.59 µM. For the same compound, the GI50 [37] was 0.337 µM, the TGI [37] was 12.9 µM and the GI50 [38] was 0.539 µM. It also gave a TGI [38] of 2.66 µM, a GI50 [39] of 1.81 µM and a TGI [39] of 14.8 µM. The GI50 [40] was 9.55 µM, the TGI [40] was 23.5 µM and the GI50 [41] was 4.26 µM. For the same compound, the TGI [41] was 16.9 µM, the GI50 [42] was 10.7 µM and the TGI [42] was 22.8 µM. The GI50 [43] was 6.68 µM, the TGI [43] was 28.2 µM and the GI50 [44] was 0.137 µM. The TGI [44] was 0.342 µM, the GI50 [45] was 3.25 µM and the TGI [45] was 17 µM. It also gave a GI50 [46] of 3.12 µM, a TGI [46] of 12.4 µM and a GI50 [47] of 4.71 µM. For the same compound, the TGI [47] was 15.6 µM, the GI50 [48] was 13 µM and the TGI [48] was 26.2 µM. For the same compound, the GI50 [49] was 6.44 µM, the TGI [49] was 19 µM and the GI50 [50] was 4.22 µM. It also gave a TGI [50] of 15 µM, a GI50 [51] of 2.78 µM and a TGI [51] of 16.1 µM. The GI50 [52] was 2.32 µM, the TGI [52] was 14.8 µM and the GI50 [53] was 3.82 µM. For the same compound, the TGI [53] was 8.05 µM, the GI50 [54] was 3.48 µM and the TGI [54] was 11 µM. The GI50 [55] was 2.2 µM, the TGI [55] was 12.5 µM and the GI50 [56] was 0.641 µM. For the same compound, the TGI [56] was 4.52 µM, the GI50 [57] was 5.8 µM and the TGI [57] was 18.7 µM. For the same compound, the GI50 [58] was 9.37 µM and the TGI [58] was 21.2 µM.
